Data on two molecules can be found in patent US4444776A, “Dipyrido (4,3-B) (3,4-F) indoles, process for obtaining them, therapeutical use and pharmaceutical compositions” (priority 1977, dated 1984).

Series [1] relates to DNA synthesis in HS5 cells. In words: Test 6: action on DNA synthesis (14C methyl-thymidine incorporation). It counts as cell-based, hamster. The settings on record: in the hours following its addition. On the procedure: Test 6: Action on the macromolecular syntheses
The action of the compounds according to the invention was studied by the incorporation of precursors marked by radioactive isotopes:
^14 C methyl-thymidine for studying the DNA synthesis
These precursors were given for a period of 30 minutes at varying times after the addition of the product to be tested.
The incorporation is measured after lysis of the cells for 1% of sodium dodecylsulfate and precipitation by 5% of trichloroacetic acid. The […] precipitate was collected on glass fibre Whatman GF/A filters. The filters were dried and counted in a liquid scintillation spectrometer.
A general note: Incorporation of labelled thymidine or its analogues reports DNA synthesis.

The subject of the next series is L1210 leukemia. In words: Test 16: structure-activity of R'1 substitution, L1210 (Table XII). In kind it is in vivo, mouse (C57B16xDBA/2)F1. Also noted: MST: unit not given here. To be noted: for 60 days surv. / ILS % / MST / Range of death: day +1. The method, then:
Test 16: Relationship between structure and activity of various dipyrido indoles differing by the R'1 substitution.
L1210 leukemia has been maintained by weekly passages on (C57B16xDBA/2)F1 mice. On day 0, mice were inoculated by I.P. route with various numbers of L1210 ascitic tumor cells in volumes of 0.1 ml. Subsequently as indicated, drugs were administrated in Ca^++ and Mg^++ free PBS solutions (Gibco) or in Mac Coy's medium (Gibso or Microbiological Associates). […]

The next series deals with new-born mice. The series can be described thus: Test 4: toxicity on new-born mice, IP. It counts as in vivo, mouse. To be noted: new-born mice. An excerpt:
Test 4: Investigation of the toxicity
The toxic dose has been sought, on adult ([…]×DBA/2) Fl mice and on new-born mice, of the compounds of the invention by injection by the IP route. The results obtained are given hereinafter:
2-On new-born mice (IP route)

The subject of the next series is L1210 cells. The series can be described thus: Test 19: effect of time of administration, L1210 (Table XIV). It counts as in vivo, mouse. Also noted: MST: unit not given beside the values. To be noted: 20 mg/kg IP. An excerpt: Test 19: Effect of the time of administration of compound 21
The non-protective effect at day+7 could be explained by the fact that some cells migrate through a compartment inaccessible to the drug (as postulated by J. B. Le Pecq for the 9-hydroxy-ellipticine).

The mark [2] stands for this setting: 10^4 cells, 5 mg/kg, control MST 11.8.
The mark [3] stands for this setting: second group: 10^4 cells, 5 mg/kg, control MST 10.9.

With `Cc1c2ccncc2c(C)c2c1[nH]c1ccncc12` [Example 1, 5,11-dimethyl dipyrido [4,3-b][3,4-f] indole], the “DNA and RNA syntheses” value in series [1] is “reduces very rapidly”.
For `CCN(CC)CCCNc1nccc2c(C)c3[nH]c4ccncc4c3cc12` [Example 7, 1-(γ-diethylaminopropyl)amino-5-methyl-dipyrido-[4,3-b][3,4-f] indole], the 60 days surv. is on record as 3 in the series with L1210 leukemia (10^3 cells, 0.5 mg/kg); 5 in the series with L1210 leukemia (10^3 cells, 5 mg/kg); 0 in the series on L1210 leukemia (10^4 cells, 0.5 mg/kg); 1 in the series with L1210 leukemia (setting [2]); 1 with L1210 leukemia (setting [3]). The ILS % in the series on L1210 leukemia (10^3 cells, 0.5 mg/kg) was 17.4%; in the series with L1210 leukemia (10^3 cells, 5 mg/kg) it was 23.2%; in the series with L1210 leukemia (10^4 cells, 0.5 mg/kg), 11.5%; in the series with L1210 leukemia (setting [2]) it was 33.3%; in the series with L1210 leukemia (setting [3]), 65.1%; in the series with L1210 cells (day +2) it was 56.4%. The ILS % in the series on L1210 cells (day +3, listed as BD 40) came to 43.0%; in the series on L1210 cells (day +3, listed as Compound 21), 43%; in the series on L1210 cells (day +4), 22.8%; in the series with L1210 cells (day +5), 17.8%; in the series with L1210 cells (day +6) it was 20.8%; in the series with L1210 cells (day +7, listed as BD 40) it was 2.0%. In the series with L1210 cells (day +7, listed as Compound 21), this molecule registered an ILS % of 2%. Moreover, the MST is 16.2 with L1210 leukemia (10^3 cells, 0.5 mg/kg); 17 with L1210 leukemia (10^3 cells, 5 mg/kg); 13.54 in the series with L1210 leukemia (10^4 cells, 0.5 mg/kg); 16.2 in the series with L1210 leukemia (setting [2]); 18 with L1210 leukemia (setting [3]); 15.8 in the series with L1210 cells (day +2). For the same molecule, the MST is listed as 14.4 in the series on L1210 cells (day +3); 12.4 in the series on L1210 cells (day +4); 11.9 in the series on L1210 cells (day +5); 12.2 with L1210 cells (day +6); 10.3 with L1210 cells (day +7). The Range of death in the series with L1210 leukemia (10^3 cells, 0.5 mg/kg) is 14-20; in the series on L1210 leukemia (10^3 cells, 5 mg/kg) it was 15-22; in the series with L1210 leukemia (10^4 cells, 0.5 mg/kg), 11-15; with L1210 leukemia (setting [2]) it was 13-21; in the series with L1210 leukemia (setting [3]) it was 14-21; with L1210 cells (day +2, 10^4 cells), 15-17. Further, the Range of death in the series with L1210 cells (day +3) was 12-17; in the series on L1210 cells (day +4), 10-14; with L1210 cells (day +5) it was 10-13; with L1210 cells (day +6) it was 10-14; with L1210 cells (day +7), 10-13. Besides, the “antitumoral activity compared with Ellipticinium acetate (HUM)” value in the series on L1210 leukemia (Table XII summary) is reported as “compete favorably with Ellipticinium acetate (HUM)”. The toxic dose result with new-born mice is recorded as “higher than 2.5 mg/kg of mouse”.
